Patent US9988430B2, “Stable GLP-1 based GLP-1/glucagon receptor co-agonists” (Novo Nordisk A/S, priority 2014, dated 2018)
*1 amine or outer side, *2 acyl side, *3 side chain or, on linkers, in order; H or OH if unused. Where a SMILES comes first, the peptide text is derived from it. Bridges are numbered along the chain shown (N, C = ends). Roman numbers before positions name the chains, in order. [ ]: non-standard residue; d: D form. The star is where a group is joined. C18 diacid = O=C(O)CCCCCCCCCCCCCCCCC(=O)*; γGlu = O=C(O)[C@H](CCC(=O)[*:2])N[*:1]; Desaminohistidyl = O=C(CCc1c[nH]cn1)*; Ac4c = NC1(C(=O)O)CCC1

Columns and labels:
human GLP-1 receptor = biological target: T1, human GLP-1 receptor (Homo sapiens, UniProt P43220); experiment: Assay (II)(a): GLP-1 receptor binding, [125I]GLP-1 displacement, SPA on BHK membranes; settings: displacement of [125I]GLP-1, membranes with human GLP-1 receptor; read-out: IC50 GLP-1R
T1 construct: expressed in transfected cells; host or cells: membranes of BHK cells, parent line BHKTS13, clone FCW467-12A
T1 sequence (P43220 24-463): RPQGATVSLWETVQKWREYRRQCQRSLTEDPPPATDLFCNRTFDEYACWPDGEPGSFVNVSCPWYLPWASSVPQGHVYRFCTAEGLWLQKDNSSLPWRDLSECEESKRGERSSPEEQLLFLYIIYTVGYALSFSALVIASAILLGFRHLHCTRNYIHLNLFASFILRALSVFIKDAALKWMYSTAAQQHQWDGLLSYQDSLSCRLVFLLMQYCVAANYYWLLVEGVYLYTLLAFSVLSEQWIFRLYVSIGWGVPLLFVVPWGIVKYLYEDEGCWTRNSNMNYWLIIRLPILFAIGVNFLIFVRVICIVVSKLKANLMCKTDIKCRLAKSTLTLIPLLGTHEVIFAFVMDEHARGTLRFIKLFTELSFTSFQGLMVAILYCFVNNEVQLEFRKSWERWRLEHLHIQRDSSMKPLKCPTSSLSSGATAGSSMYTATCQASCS
In short: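 Membranes from BHK cells expressing human GLP-1 receptor with WGA SPA beads, [125I]GLP-1(7-36)NH2 (480 pM added solution) and compound in HEPES pH 7.4 buffer with EGTA, MgCl2, Tween 20. Incubated 2 h at 30° C; SPA counts fitted by non-linear regression to IC50 in nM.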

[1] = Assay (V): chemical stability assessment by RP-UPLC; assay type: physicochemical; settings: 14 days at 37° C. in phosphate buffer (pH 7.3)
Description: Assay (V): Chemical Stability Assessment
The purpose of this assay is to assess the chemical stability of the GLP-1 derivatives of the present invention in aqueous solutions.
Chemical stability of GLP-1 derivatives may be investigated by RP-UPLC separation and UV detection. Lyophilized samples are dissolved in a 8 mM Phosphate buffer pH 8.6, followed by adjustment to pH 7.3 using HCl to a final concentration of 333 μM. Samples are incubated for 14 days at 5° C. and 37° C. followed by RP-UPLC analysis. Purity is defined as the area percentage of the main peak in relation to the total area of all integrated peaks in each chromatogram. Purity loss, also referred to herein as chemical degradation, after 14 days at 37° C. is determined as the difference in purity between the samples incubated at 5° C. and 37° C., divided by the purity of the sample after incubation for 14 days at 5° C.
RP-UPLC analysis is performed using a Waters BEH130 2.1 mm×150 mm, 1.7 μm column operated at 50° C. and a flow rate of 0.4 mL/min using a mobile phase system consisting of A: 0.05% TFA in MQ-water, and B: 0.05% TFA in Acetonitrile. UV-detection is performed at 215 nm. The typical gradient profile used for most of the samples is shown below.
For some individual derivatives eluting at substantially different retention times compared with the majority of derivatives, some adjustments to the gradient profile are made to better enable purity assessment comparison across samples.

IC50 (human GLP-1 receptor): 0.7 nM | Chemical stability: Chemical degradation over 14 days at 37° C. [1]: 1.5%
Structure (SMILES): CC[C@H](C)[C@H](NC(=O)[C@H](Cc1ccccc1)NC(=O)[C@H](CCC(=O)O)NC(=O)[C@H](CCCNC(=N)N)NC(=O)[C@H](C)NC(=O)[C@H](C)NC(=O)[C@H](CCC(N)=O)NC(=O)[C@H](CCC(=O)O)NC(=O)[C@H](CCC(=O)O)NC(=O)[C@H](CC(C)C)NC(=O)[C@H](Cc1ccc(O)cc1)NC(=O)[C@H](CCCCN)NC(=O)[C@H](CO)NC(=O)[C@H](Cc1ccc(O)cc1)NC(=O)[C@H](CC(=O)O)NC(=O)[C@H](CO)NC(=O)[C@@H](NC(=O)[C@H](Cc1ccccc1)NC(=O)[C@@H](NC(=O)CNC(=O)[C@H](Cc1c[nH]cn1)NC(=O)C1(NC(=O)CCc2c[nH]cn2)CCC1)[C@@H](C)O)[C@@H](C)O)C(=O)N[C@@H](C)C(=O)N[C@@H](Cc1c[nH]c2ccccc12)C(=O)N[C@@H](CC(C)C)C(=O)N[C@@H](CC(C)C)C(=O)N[C@@H](CCCCN)C(=O)N[C@@H](CCCCNC(=O)CNC(=O)[C@H](CO)NC(=O)[C@H](CCC(=O)O)NC(=O)CNC(=O)[C@H](CO)NC(=O)CC[C@H](NC(=O)CC[C@H](NC(=O)CCCCCCCCCCCCCCCCC(=O)O)C(=O)O)C(=O)O)C(N)=O [Example 1, N^ε35-[2-[[(2S)-2-[[(2S)-4-carboxy-2-[[2-[[(2S)-2-[[(4S)-4-carboxy-4-[[(4S)-4-carboxy-4-(17-carboxyheptadecanoylamino)butanoyl]amino]butanoyl]amino]-3-hydroxypropanoyl]amino]acetyl]amino]butanoyl]amino]-3-hydroxypropanoyl]amino]acetyl]-[Imp7,Acb8,His9,Tyr16,Lys18,Glu22,Arg26,Leu33,Lys35]-GLP-1-(7-35)-peptide amide] (I: Desaminohistidyl-[Ac4c]HGTFTSDYSKYLEEQAAREFIAWLLKK-NH2 / II: {C18 diacid-γGlu-γGlu}-SGESG; amide I:28-II:C)
